Results as given in US9023789B2, “Amylin analogs and pharmaceutical compositions thereof” (Novo Nordisk A/S, priority 2012, dated 2015).
Where two headings read alike, the source gives them in different places. Numbered stars: 1 amine (or outer) side, 2 acyl side, 3 side chain; on linkers, the order of the positions; unused ones are H or OH. Bridge positions count the residues as written; N and C are the ends. Side chains are listed from the residue outwards. Peptide text beside a SMILES is read from it. * marks the point of attachment. C20 diacid = O=C(O)CCCCCCCCCCCCCCCCCCC(=O)*; γGlu = O=C(O)[C@H](CCC(=O)[*:2])N[*:1]

Legend:
[1] = ASSAY (IV) determination of solubility; assay type: physicochemical
Procedure, shortened: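 Polypeptide stock in water ([…]) was mixed 1:1 with 100 mM buffers: glycylglycine at pH 3.0, 4.0, 5.0 and bistrispropane at pH 6.0, 6.5, 7.0, 7.5, 8.0. After 18 hours at room temperature, samples were centrifuged and polypeptide concentration measured by UPLC.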

[2] = test system: Sprague Dawley (SD) rats; assay: ASSAY (I) efficacy testing on appetite (food intake) using an ad libitum fed rat model; assay type: in vivo; settings: rat, 30 nmol/kg
Procedure, shortened: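 Ad libitum fed SD rats (200–250 g) were housed singly on a reversed light/dark cycle and given one 0.01–3 mg/kg dose ip, po or sc just before lights-off, with 5–8 per dose group plus vehicle controls. Food intake was recorded hourly for 7 h, then at 24 h and sometimes 48 h; Grubbs outliers were excluded.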

[3] = ASSAY (III) ThT fibrillation assay for physical stability; assay type: physicochemical
Procedure, shortened: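 Formulations with 1 μM ThT, pH adjusted as required, incubated at 37 °C with 960 rpm orbital shaking; fluorescence (ex 444/em 485 nm) read every 20 min. Fibrillation reported as mean ThT fluorescence ± SD of 4–8 replicates at time points; polypeptide concentration measured by reverse-phase HPLC before and after, post-centrifugation.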

CC[C@H](C)[C@H](NC(=O)[C@H](C)NC(=O)CNC(=O)[C@H](Cc1ccccc1)NC(=O)[C@H](CC(N)=O)NC(=O)[C@@H]1CCCN1C(=O)[C@H](CO)NC(=O)[C@H](CO)NC(=O)[C@H](Cc1c[nH]cn1)NC(=O)[C@H](CCCNC(=N)N)NC(=O)[C@H](CC(C)C)NC(=O)[C@H](Cc1ccccc1)NC(=O)[C@H](CC(=O)O)NC(=O)[C@H](C)NC(=O)[C@H](CC(C)C)NC(=O)[C@H](CCCNC(=N)N)NC(=O)[C@H](CCC(N)=O)NC(=O)[C@@H](NC(=O)[C@H](C)NC(=O)[C@@H]1CSSC[C@H](NC(=O)[C@@H](N)CCCCNC(=O)CC[C@H](NC(=O)CC[C@H](NC(=O)CCCCCCCCCCCCCCCCCCC(=O)O)C(=O)O)C(=O)O)C(=O)N[C@@H](CC(N)=O)C(=O)N[C@@H]([C@@H](C)O)C(=O)N[C@@H](C)C(=O)N[C@@H]([C@@H](C)O)C(=O)N1)[C@@H](C)O)C(=O)N1CCC[C@H]1C(=O)N[C@@H](CO)C(=O)N[C@@H](CO)C(=O)N[C@H](C(=O)N[C@@H](CC(N)=O)C(=O)N[C@H](C(=O)NCC(=O)N1CCC[C@H]1C(=O)N[C@@H](CCCNC(=N)N)C(=O)N[C@H](C(=O)N[C@@H](Cc1ccc(O)cc1)C(N)=O)[C@@H](C)O)C(C)C)[C@@H](C)O [Example 130] (H-K([γGlu-γGlu-C20 diacid])CNTATCATQRLADFLRHSSPNFGAIPSSTNVGPRTY-NH2; disulfide 2-7 (inferred); N-terminus assumed)
solubility at 18 h ([1]; bistrispropane buffer, pH 6.5, read-out: Solubility pH 6.5 Concentration): ≥ 200 µM
solubility at 18 h ([1]; bistrispropane buffer, pH 7.5, read-out: Solubility pH 7.5 Concentration): ≥ 200 µM
solubility at 18 h ([1]; bistrispropane buffer, pH 6.0, read-out: Solubility pH 6.0 Concentration): ≥ 200 µM
solubility at 18 h ([1]; bistrispropane buffer, pH 7.0, read-out: Solubility pH 7.0 Concentration): ≥ 200 µM
solubility at 18 h ([1]; bistrispropane buffer, pH 8.0, read-out: Solubility pH 8.0 Concentration): ≥ 200 µM
solubility at 18 h ([1]; glycylglycine buffer, pH 3.0, read-out: Solubility pH 3.0 Concentration): ≥ 200 µM
solubility at 18 h ([1]; glycylglycine buffer, pH 4.0, read-out: Solubility pH 4.0 Concentration): ≥ 200 µM
solubility at 18 h ([1]; glycylglycine buffer, pH 5.0, read-out: Solubility pH 5.0 Concentration): ≥ 200 µM
Food intake reduction 0-24 h 30 nmol/kg (%) ([2]; 0-24 h): 80%
Food intake reduction 24-48 h 30 nmol/kg (%) ([2]; 24-48 h): 27%
ThT pH 4.0 lag time (h) [3]: 45 h
